Converted amounts (≈) assume the structure as drawn. Marks after values point to notes of the source that are not given here. Non-standard residues stand in square brackets, D forms with d. Residues, ends and D or L forms follow the SMILES beside them. dPhe(3,4-F2) = N[C@H](Cc1ccc(F)c(F)c1)C(=O)O; dPhe(4-Cl) = N[C@H](Cc1ccc(Cl)cc1)C(=O)O
Tests used:
[1] = tested on: Pseudomonas aeruginosa ATCC 27853; assay: Injectable formulations on mice infected with peritonitis; type: in vivo, ICR mice; conditions: twice a day for 3 days; for Number of mice that died on each day after infection: day 1 / Number of mice that died on each day after infection: day 2 / Number of mice that died on each day after infection: day 3 / Number of mice that died on each day after infection: day 4 / Number of mice that died on each day after infection: day 5 / Average survival times (Days): n = 10; for Average survival times (Days): observed for 14 d
Summary of the method: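 Survival readout: deaths and survival time tracked for 14 d. Treatment was tail-vein injection by body weight, twice a day for 3 consecutive days, starting right after intraperitoneal challenge with 0.2 mL of 1×10^9 CFU/mL P. aeruginosa ATCC 27853 in male and female ICR mice.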

[2] = tested on: Staphylococcus aureus (NRS 384); assay: microbe, parasite or virus in culture; type: cell-based; conditions: NRS 384
Summary of the method: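 MICs were read against S. aureus strain NRS 384 using twofold serial dilution by CLSI microdilution rules. Levofloxacin and Cbf-K16 were the reference controls, and the test was repeated 5 times in parallel.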

[3] = tested on: carbapenem-resistant Pseudomonas aeruginosa (CRPA); type: cell-based; conditions: carbapenem-resistant (CRPA)
Summary of the method: (§1)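 Read-out is the minimum inhibitory concentration, obtained by twofold serial dilution in microdilution format per CLSI guidance, with five parallel runs.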

[4] = tested on: vancomycin-resistant Enterococcus (VRE); type: cell-based
Summary of the method: as §1

[5] = tested on: Methicillin-resistant Staphylococcus aureus (MRSA); type: cell-based; conditions: Methicillin-resistant
Summary of the method: as §1

[6] = tested on: carbapenem-resistant Klebsiella pneumoniae (CRKP); type: cell-based; conditions: carbapenem-resistant (CRKP)
Summary of the method: as §1

[7] = tested on: carbapenem-resistant Escherichia coli (CREC); type: cell-based; conditions: carbapenem-resistant (CREC)
Summary of the method: as §1

[8] = Serum stability assay (residual level by RP-HPLC); conditions: human
[9] = tested on: Trichophyton ATCC MYA-4438; type: cell-based
Summary of the method: (§2)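 MICs were determined by serial twofold dilution in microdilution format, following CLSI antimicrobial susceptibility testing standards. Each determination was repeated 5 times in parallel.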

Candida krusei ATCC 6258 = type: cell-based
Summary of the method: as §2

[10] = tested on: Candida glabrata ATCC 15126; type: cell-based
Summary of the method: as §2

[11] = tested on: Salmonella typhimurium ATCC 14028; type: cell-based
Summary of the method: as §2

Candida utilis ATCC 9950 = type: cell-based
Summary of the method: as §2

[12] = tested on: Candida tropicalis ATCC 750; type: cell-based
Summary of the method: as §2

[13] = tested on: Escherichia coli ATCC 25922; type: cell-based
Summary of the method: as §2

[14] = tested on: Pseudomonas aeruginosa ATCC 27853; type: cell-based
Summary of the method: as §2

[15] = tested on: Candida albicans ATCC MYA-2876; type: cell-based
Summary of the method: as §2

Enterococcus ATCC 29212 = type: cell-based
Summary of the method: as §2

[16] = tested on: Klebsiella pneumoniae ATCC 700603; type: cell-based
Summary of the method: as §2

[17] = tested on: Serratia marcescens ATCC 29021; type: cell-based
Summary of the method: as §2

[18] = tested on: Bacillus subtilis ATCC 6633; type: cell-based
Summary of the method: as §2

[19] = tested on: Staphylococcus aureus ATCC 25923; type: cell-based
Summary of the method: as §2

[20] = tested on: Corynebacterium ATCC 7715; type: cell-based
Summary of the method: as §2

[21] = tested on: Shigella flexneri ATCC 12022; assay: MIC against clinically common bacterial strain; type: cell-based
Summary of the method: as §2

[22] = tested on: Staphylococcus aureus (NRS 384); conditions: NRS 384, 3 h
Procedure: Trypsin (250 U/mg, pH=8.0) and AMPs (LV-1 to LV-30) were mixed in a ratio of 1:10 (w/w) and added to a reaction buffer (0.2 M sodium phosphate, 1 mM CaCl2), pH 7.5), and then incubated at 37° C. for 3 h.

CC(=O)N[C@H](CCCNC(=N)N)C(=O)N[C@H](CCCCN)C(=O)N[C@H](CC(C)C)C(=O)N[C@H](CC(C)C)C(=O)N[C@H](Cc1ccc(F)c(F)c1)C(=O)N[C@H](CCCCN)C(=O)N[C@H](CC(C)C)C(=O)N[C@H](CCCCN)C(=O)N[C@H](Cc1ccc(F)c(F)c1)C(=O)N[C@H](CCCCN)C(=O)N[C@H](CCCNC(=N)N)C(N)=O [LV-6] (Ac-[dR][dK][dL][dL][dPhe(3,4-F2)][dK][dL][dK][dPhe(3,4-F2)][dK][dR]-NH2)
Number of mice that died on each day after infection: day 1 ([1]; 0.2 mg/kg via tail vein): 2 Mouse | Number of mice that died on each day after infection: day 2 ([1]; 0.2 mg/kg via tail vein): 2 Mouse | Number of mice that died on each day after infection: day 3 ([1]; 0.2 mg/kg via tail vein): 1 Mouse | Number of mice that died on each day after infection: day 4 ([1]; 0.2 mg/kg via tail vein): 0 Mouse | Number of mice that died on each day after infection: day 5 ([1]; 0.2 mg/kg via tail vein): 0 Mouse | Average survival times (Days) ([1]; 0.2 mg/kg via tail vein): 7.9** Days | Number of mice that died on each day after infection: day 1 ([1]; 1 mg/kg via tail vein): 1 Mouse | Number of mice that died on each day after infection: day 2 ([1]; 1 mg/kg via tail vein): 1 Mouse | Number of mice that died on each day after infection: day 3 ([1]; 1 mg/kg via tail vein): 0 Mouse | Number of mice that died on each day after infection: day 4 ([1]; 1 mg/kg via tail vein): 1 Mouse | Number of mice that died on each day after infection: day 5 ([1]; 1 mg/kg via tail vein): 0 Mouse | Average survival times (Days) ([1]; 1 mg/kg via tail vein): 10.5**** Days | Number of mice that died on each day after infection: day 1 ([1]; 5 mg/kg via tail vein): 1 Mouse | Number of mice that died on each day after infection: day 2 ([1]; 5 mg/kg via tail vein): 2 Mouse | Number of mice that died on each day after infection: day 3 ([1]; 5 mg/kg via tail vein): 1 Mouse | Number of mice that died on each day after infection: day 4 ([1]; 5 mg/kg via tail vein): 0 Mouse | Number of mice that died on each day after infection: day 5 ([1]; 5 mg/kg via tail vein): 0 Mouse | Average survival times (Days) ([1]; 5 mg/kg via tail vein): 9.2*** Days | survival time of mice infected with Pseudomonas aeruginosa ([1]; tail vein, observed 14 d): superior to those of the Levofloxacin group | MIC against Staphylococcus aureus (NRS 384) [2]: 1 mg/L (≈ 0.629 µM) | MIC CRPA [3]: 8 mg/L (≈ 5.03 µM) | MIC VRE [4]: 2 mg/L (≈ 1.26 µM) | MIC MRSA [5]: 4 mg/L (≈ 2.52 µM) | MIC CRKP [6]: 8 mg/L (≈ 5.03 µM) | MIC CREC [7]: 2 mg/L (≈ 1.26 µM) | remaining at 12 h, 0.91 mg/mL [8]: 98% | MIC Trichophyton ATCC MYA-4438 [9]: 8 mg/L (≈ 5.03 µM) | MIC Candida krusei ATCC 6258 (Candida krusei ATCC 6258): 4 mg/L (≈ 2.52 µM) | MIC Candida glabrata ATCC 15126 [10]: 8 mg/L (≈ 5.03 µM) | MIC Salmonella typhimurium ATCC 14028 [11]: 2 mg/L (≈ 1.26 µM) | MIC Candida utilis ATCC 9950 (Candida utilis ATCC 9950): 8 mg/L (≈ 5.03 µM) | MIC Candida tropicalis ATCC 750 [12]: 4 mg/L (≈ 2.52 µM) | MIC Escherichia coli ATCC 25922 [13]: 1 mg/L (≈ 0.629 µM) | MIC Pseudomonas aeruginosa ATCC 27853 [14]: 1 mg/L (≈ 0.629 µM) | MIC Candida albicans ATCC MYA-2876 [15]: 16 mg/L (≈ 10.1 µM) | MIC Enterococcus ATCC 29212 (Enterococcus ATCC 29212): 2 mg/L (≈ 1.26 µM) | MIC Klebsiella pneumoniae ATCC 700603 [16]: 4 mg/L (≈ 2.52 µM) | MIC Serratia marcescens ATCC 29021 [17]: 8 mg/L (≈ 5.03 µM) | MIC Bacillus subtilis ATCC 6633 [18]: 4 mg/L (≈ 2.52 µM) | MIC Staphylococcus aureus ATCC 25923 [19]: 1 mg/L (≈ 0.629 µM) | MIC Corynebacterium ATCC 7715 [20]: 2 mg/L (≈ 1.26 µM) | MIC Shigella flexneri ATCC 12022 [21]: 4 mg/L (≈ 2.52 µM) | Trypsin MIC [22]: 1 mg/L

CC(=O)N[C@H](CCCNC(=N)N)C(=O)N[C@H](CCCCN)C(=O)N[C@H](CC(C)C)C(=O)N[C@H](CC(C)C)C(=O)N[C@H](Cc1ccc(Cl)cc1)C(=O)N[C@H](CCCCN)C(=O)N[C@H](CC(C)C)C(=O)N[C@H](CCCCN)C(=O)N[C@H](Cc1ccc(Cl)cc1)C(=O)N[C@H](CCCCN)C(=O)N[C@H](CCCNC(=N)N)C(N)=O [LV-7] (Ac-[dR][dK][dL][dL][dPhe(4-Cl)][dK][dL][dK][dPhe(4-Cl)][dK][dR]-NH2)
Number of mice that died on each day after infection: day 1 ([1]; 1 mg/kg via tail vein): 0 Mouse | Number of mice that died on each day after infection: day 2 ([1]; 1 mg/kg via tail vein): 1 Mouse | Number of mice that died on each day after infection: day 3 ([1]; 1 mg/kg via tail vein): 1 Mouse | Number of mice that died on each day after infection: day 4 ([1]; 1 mg/kg via tail vein): 1 Mouse | Number of mice that died on each day after infection: day 5 ([1]; 1 mg/kg via tail vein): 1 Mouse | Average survival times (Days) ([1]; 1 mg/kg via tail vein): 9.8*** Days | MIC against Staphylococcus aureus (NRS 384) [2]: 1 mg/L (≈ 0.63 µM) | MIC CRPA [3]: 2 mg/L (≈ 1.26 µM) | MIC VRE [4]: 4 mg/L (≈ 2.52 µM) | MIC MRSA [5]: 2 mg/L (≈ 1.26 µM) | MIC CRKP [6]: 4 mg/L (≈ 2.52 µM) | MIC CREC [7]: 8 mg/L (≈ 5.04 µM) | remaining at 12 h, 0.91 mg/mL [8]: 98.9% | MIC Trichophyton ATCC MYA-4438 [9]: 8 mg/L (≈ 5.04 µM) | MIC Candida krusei ATCC 6258 (Candida krusei ATCC 6258): 8 mg/L (≈ 5.04 µM) | MIC Candida glabrata ATCC 15126 [10]: 8 mg/L (≈ 5.04 µM) | MIC Salmonella typhimurium ATCC 14028 [11]: 4 mg/L (≈ 2.52 µM) | MIC Candida utilis ATCC 9950 (Candida utilis ATCC 9950): 8 mg/L (≈ 5.04 µM) | MIC Candida tropicalis ATCC 750 [12]: 8 mg/L (≈ 5.04 µM) | MIC Escherichia coli ATCC 25922 [13]: 4 mg/L (≈ 2.52 µM) | MIC Pseudomonas aeruginosa ATCC 27853 [14]: 2 mg/L (≈ 1.26 µM) | MIC Candida albicans ATCC MYA-2876 [15]: 8 mg/L (≈ 5.04 µM) | MIC Enterococcus ATCC 29212 (Enterococcus ATCC 29212): 8 mg/L (≈ 5.04 µM) | MIC Klebsiella pneumoniae ATCC 700603 [16]: 2 mg/L (≈ 1.26 µM) | MIC Serratia marcescens ATCC 29021 [17]: 8 mg/L (≈ 5.04 µM) | MIC Bacillus subtilis ATCC 6633 [18]: 4 mg/L (≈ 2.52 µM) | MIC Staphylococcus aureus ATCC 25923 [19]: 1 mg/L (≈ 0.63 µM) | MIC Corynebacterium ATCC 7715 [20]: 4 mg/L (≈ 2.52 µM) | MIC Shigella flexneri ATCC 12022 [21]: 4 mg/L (≈ 2.52 µM) | Trypsin MIC [22]: 1 mg/L
